Reference: PubChem BioAssay AID248 (DTP/NCI, 2004)
Values joined by “and” are separate entries in the source; they are usually repeats but may differ in a detail not shown here. Equal values may be shown once. Toxic doses and inconclusive results are not listed. Rule as the data show it: active = T/C of 150% or more; inactive = T/C below 125%.

Tested on: L1210 leukemia ip in BDF1 mice, survival T/C
Experiment: NCI In Vivo Anticancer Drug Screen. Data for tumor model L1210 Leukemia (intraperitoneal) in B6D2F1 (BDF1) mice
Details: endpoint: mean survival time, higher = longer survival
Method in brief: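 Ratio derived from survival: compound-dosed mice over vehicle-dosed mice, all bearing a transplantable tumor.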

[1] = dose: 100.0 mg/kg/injection, schedule: Q01DX009 (ip), vehicle: Klucel (hydroxypropylcellulose) (HPC)
[2] = dose: 200.0 mg/kg/injection, schedule: Q01DX009 (ip), vehicle: Klucel (hydroxypropylcellulose) (HPC)
[3] = dose: 400.0 mg/kg/injection, schedule: Q01DX009 (ip), vehicle: Klucel (hydroxypropylcellulose) (HPC)
[4] = dose: 50.0 mg/kg/injection, schedule: Q01DX001 (ip), vehicle: carboxymethylcellulose (CMC)
[5] = dose: 100.0 mg/kg/injection, schedule: Q01DX001 (ip), vehicle: saline
[6] = dose: 100.0 mg/kg/injection, schedule: Q04DX003 (ip), vehicle: saline
[7] = dose: 200.0 mg/kg/injection, schedule: Q01DX001 (ip), vehicle: saline
[8] = dose: 200.0 mg/kg/injection, schedule: Q04DX003 (ip), vehicle: saline
[9] = dose: 400.0 mg/kg/injection, schedule: Q01DX001 (ip), vehicle: saline

Measured: T/C

OC(Cc1ccc2ccccc2n1)C(Cl)(Cl)Cl (centres undefined)
inactive: dose: 25.0 mg/kg/injection, schedule: Q01DX009 (ip), vehicle: saline with Tween-80 103 % of control | dose: 50.0 mg/kg/injection, schedule: Q01DX009 (ip), vehicle: saline with Tween-80 91 % of control | [1] 101 % of control | dose: 100.0 mg/kg/injection, schedule: Q01DX009 (ip), vehicle: saline with Tween-80 101 % of control | [2] 93 % of control | dose: 200.0 mg/kg/injection, schedule: Q01DX009 (ip), vehicle: saline with Tween-80 89 % of control | [3] 101 % of control | dose: 400.0 mg/kg/injection, schedule: Q01DX009 (ip), vehicle: saline with Tween-80 114 % of control

Cc1ccc(CNC(=O)Nc2cccc(Cl)c2)cc1C
inactive: [1] 97 % of control | [2] 92 % of control | [3] 103 % of control

Cn1c(CN(CCCl)CCCl)nc2c1c(=O)[nH]c(=O)n2C
inactive: [4] 108 % of control | dose: 100.0 mg/kg/injection, schedule: Q01DX001 (ip), vehicle: carboxymethylcellulose (CMC) 102 % of control | dose: 178.0 mg/kg/injection, schedule: Q01DX001 (ip), vehicle: carboxymethylcellulose (CMC) 109 % of control | dose: 200.0 mg/kg/injection, schedule: Q01DX001 (ip), vehicle: carboxymethylcellulose (CMC) 119 % of control | dose: 267.0 mg/kg/injection, schedule: Q01DX001 (ip), vehicle: carboxymethylcellulose (CMC) 111 % of control and 116 % of control | dose: 400.0 mg/kg/injection, schedule: Q01DX001 (ip), vehicle: carboxymethylcellulose (CMC) 93 % of control | dose: 600.0 mg/kg/injection, schedule: Q01DX001 (ip), vehicle: carboxymethylcellulose (CMC) 90 % of control

[Cl][Tl]
inactive: [5] 94 % of control | [6] 106 % of control | [7] 101 % of control | [8] 90 % of control | [9] 94 % of control

Cc1cccc2c1N=C(C(F)(F)F)CC2=O
inactive: dose: 75.0 mg/kg/injection, schedule: Q01DX001 (ip), vehicle: other 100 % of control | dose: 150.0 mg/kg/injection, schedule: Q01DX001 (ip), vehicle: other 96 % of control | dose: 300.0 mg/kg/injection, schedule: Q01DX001 (ip), vehicle: other 97 % of control

CCCCOc1ccc(NC(N)=Nc2ccc(Cl)cc2)cc1
inactive: dose: 2.5 mg/kg/injection, schedule: Q01DX009 (ip), vehicle: saline with Tween-80 102 % of control | dose: 5.0 mg/kg/injection, schedule: Q01DX009 (ip), vehicle: saline with Tween-80 94 % of control | dose: 10.0 mg/kg/injection, schedule: Q01DX009 (ip), vehicle: saline with Tween-80 96 % of control | dose: 10.0 mg/kg/injection, schedule: Q04DX003 (ip), vehicle: saline with Tween-80 101 % of control | dose: 12.5 mg/kg/injection, schedule: Q01DX001 (ip), vehicle: carboxymethylcellulose (CMC) 109 % of control | dose: 20.0 mg/kg/injection, schedule: Q01DX009 (ip), vehicle: saline with Tween-80 103 % of control | dose: 20.0 mg/kg/injection, schedule: Q04DX003 (ip), vehicle: saline with Tween-80 92 % of control | dose: 25.0 mg/kg/injection, schedule: Q01DX001 (ip), vehicle: carboxymethylcellulose (CMC) 100 % of control | dose: 40.0 mg/kg/injection, schedule: Q04DX003 (ip), vehicle: saline with Tween-80 97 % of control | [4] 100 % of control | dose: 80.0 mg/kg/injection, schedule: Q04DX003 (ip), vehicle: saline with Tween-80 98 % of control

O=C(Cl)c1ccc(C(Cl)(Cl)Cl)cc1
inactive: dose: 100.0 mg/kg/injection, schedule: Q04DX003 (ip), vehicle: Klucel (hydroxypropylcellulose) (HPC) 95 % of control | dose: 200.0 mg/kg/injection, schedule: Q04DX003 (ip), vehicle: Klucel (hydroxypropylcellulose) (HPC) 111 % of control | dose: 400.0 mg/kg/injection, schedule: Q04DX003 (ip), vehicle: Klucel (hydroxypropylcellulose) (HPC) 104 % of control

O=C(COc1ccc(Cl)cc1)Nc1ccc(Cl)cc1C(=O)c1ccccc1
inactive: dose: 50.0 mg/kg/injection, schedule: Q01DX009 (ip), vehicle: other 106 % of control | dose: 100.0 mg/kg/injection, schedule: Q01DX009 (ip), vehicle: other 102 % of control | dose: 200.0 mg/kg/injection, schedule: Q01DX009 (ip), vehicle: other 96 % of control and 87 % of control | dose: 400.0 mg/kg/injection, schedule: Q01DX009 (ip), vehicle: other 89 % of control

O=[N+]([O-])c1ccc(-c2ccc([N+](=O)[O-])cc2)cc1
inactive: dose: 100.0 mg/kg/injection, schedule: Q04DX002 (ip), vehicle: Klucel (hydroxypropylcellulose) (HPC) 98 % of control | dose: 200.0 mg/kg/injection, schedule: Q04DX002 (ip), vehicle: Klucel (hydroxypropylcellulose) (HPC) 124 % of control | dose: 400.0 mg/kg/injection, schedule: Q04DX002 (ip), vehicle: Klucel (hydroxypropylcellulose) (HPC) 95 % of control

CN(C)C(=O)c1cc(C(=O)N(C)C)c[n+](Cc2c(Cl)cccc2Cl)c1
inactive: dose: 18.75 mg/kg/injection, schedule: Q01DX009 (ip), vehicle: saline 95 % of control | dose: 37.5 mg/kg/injection, schedule: Q01DX009 (ip), vehicle: saline 95 % of control | dose: 75.0 mg/kg/injection, schedule: Q01DX001 (ip), vehicle: saline 97 % of control | dose: 75.0 mg/kg/injection, schedule: Q01DX009 (ip), vehicle: saline 94 % of control | dose: 75.0 mg/kg/injection, schedule: Q04DX003 (ip), vehicle: saline 100 % of control | dose: 150.0 mg/kg/injection, schedule: Q01DX001 (ip), vehicle: saline 106 % of control | dose: 150.0 mg/kg/injection, schedule: Q04DX003 (ip), vehicle: saline 96 % of control | dose: 300.0 mg/kg/injection, schedule: Q01DX001 (ip), vehicle: saline 104 % of control

O=[N+]([O-])c1cc(Cl)ccc1S(=O)(=O)/C=C/c1ccccc1
inactive: [5] 104 % of control | dose: 100.0 mg/kg/injection, schedule: Q01DX009 (ip), vehicle: saline 94 % of control | [7] 104 % of control | dose: 200.0 mg/kg/injection, schedule: Q01DX009 (ip), vehicle: saline 96 % of control | [9] 100 % of control | dose: 400.0 mg/kg/injection, schedule: Q01DX009 (ip), vehicle: saline 91 % of control

CC(=O)OCC(=O)C12OC1CC1C3CCC4CC(O)CCC4(C)C3CC(=O)C12C (centres undefined)
inactive: dose: 6.0 mg/kg/injection, schedule: Q04DX002 (ip), vehicle: other 91 % of control | dose: 12.5 mg/kg/injection, schedule: Q04DX002 (ip), vehicle: other 106 % of control | dose: 25.0 mg/kg/injection, schedule: Q04DX002 (ip), vehicle: other 98 % of control | dose: 50.0 mg/kg/injection, schedule: Q04DX002 (ip), vehicle: other 98 % of control

C=Cc1ccc(C(=O)O)cc1
inactive: dose: 100.0 mg/kg/injection, schedule: Q04DX002 (ip), vehicle: saline with Tween-80 98 % of control | dose: 200.0 mg/kg/injection, schedule: Q04DX002 (ip), vehicle: saline with Tween-80 98 % of control | dose: 400.0 mg/kg/injection, schedule: Q04DX002 (ip), vehicle: saline with Tween-80 106 % of control

COc1ccc(Cl)cc1NC(=O)OC/C=C/c1ccccc1
inactive: dose: 100.0 mg/kg/injection, schedule: Q01DX009 (ip), vehicle: gum acacia 96 % of control | dose: 200.0 mg/kg/injection, schedule: Q01DX009 (ip), vehicle: gum acacia 96 % of control | dose: 400.0 mg/kg/injection, schedule: Q01DX009 (ip), vehicle: gum acacia 87 % of control

O=C1NC(Cc2ccccc2)C(=O)O1 (centres undefined)
inactive: [6] 100 % of control | [8] 91 % of control | dose: 400.0 mg/kg/injection, schedule: Q04DX003 (ip), vehicle: saline 93 % of control
